Results on 27 compounds are retold here after patent US7674801B2 (AstraZeneca AB, priority 2006, dated 2010).

≈ marks a conversion by molar mass, not a printed value.

In test [1] the target is S. aureus (SAU) GyrB ATPase (Staphylococcus aureus, UniProt P0A0K8). The test can be described thus: S. aureus GyrB ATPase inhibition, ammonium molybdate/malachite green phosphate detection assay. The following applies: for inhibition at 12.5 µM: read-out: S. aureus (SAU) GyrB ATPase % Inhibition, compound concentration 12.5 μM. The test is classed as biochemical. The procedure, abridged:
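Phosphate from ATP hydrolysis (500 μM ATP) read as malachite green/molybdate absorbance at 650 nm after acid quench. Reaction: 1.25 nM S. aureus GyrB plus 1.25 nM E. coli GyrA, sheared DNA, Hepes pH 7.5 with Mg2+. IC50 fitted over 10 concentrations, normalised to DMSO (2%) and novobiocin (2 μM) controls.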

In test [2] the test system is Streptococcus pneumoniae. The test can be described thus: Bacterial susceptibility testing in liquid media (MIC). The test is classed as cell-based. The following applies: 37° C., 24 hrs. The protocol:
Compounds were tested for antimicrobial activity by susceptibility testing in liquid media. Compounds were dissolved in dimethylsulfoxide and tested in 10 doubling dilutions in the susceptibility assays. The organisms used in the assay were grown overnight on suitable agar media and then suspended in a liquid medium appropriate for the growth of the organism. The suspension was a 0.5 McFarland and a further 1 in 10 dilution was made into the same liquid medium to prepare the final organism suspension in 100 μL. Plates were incubated under appropriate conditions at 37° C. for 24 hrs prior to reading. The Minimum Inhibitory Concentration was determined as the lowest drug concentration able to reduce growth by 80% or more.

Sequence of S. aureus (SAU) GyrB ATPase (P0A0K8 whole entry): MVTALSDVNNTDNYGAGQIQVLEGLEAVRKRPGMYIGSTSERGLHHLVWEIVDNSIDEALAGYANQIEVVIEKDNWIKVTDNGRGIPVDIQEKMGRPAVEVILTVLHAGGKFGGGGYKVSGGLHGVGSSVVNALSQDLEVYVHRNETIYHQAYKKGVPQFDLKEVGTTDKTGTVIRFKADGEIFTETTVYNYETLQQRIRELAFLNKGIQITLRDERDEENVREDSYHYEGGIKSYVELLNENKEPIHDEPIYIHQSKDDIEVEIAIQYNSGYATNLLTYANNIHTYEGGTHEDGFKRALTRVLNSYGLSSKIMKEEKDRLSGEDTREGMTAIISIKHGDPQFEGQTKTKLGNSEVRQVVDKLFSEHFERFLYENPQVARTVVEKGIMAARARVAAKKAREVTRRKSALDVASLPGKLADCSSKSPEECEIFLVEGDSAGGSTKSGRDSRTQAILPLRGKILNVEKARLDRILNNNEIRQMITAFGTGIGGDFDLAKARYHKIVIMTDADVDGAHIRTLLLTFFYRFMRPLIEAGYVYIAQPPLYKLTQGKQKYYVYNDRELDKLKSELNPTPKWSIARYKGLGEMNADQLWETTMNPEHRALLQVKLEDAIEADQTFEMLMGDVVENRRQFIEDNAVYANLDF
Sequence of S. aureus (SAU) GyrB ATPase (P0AES4 whole entry, further chain): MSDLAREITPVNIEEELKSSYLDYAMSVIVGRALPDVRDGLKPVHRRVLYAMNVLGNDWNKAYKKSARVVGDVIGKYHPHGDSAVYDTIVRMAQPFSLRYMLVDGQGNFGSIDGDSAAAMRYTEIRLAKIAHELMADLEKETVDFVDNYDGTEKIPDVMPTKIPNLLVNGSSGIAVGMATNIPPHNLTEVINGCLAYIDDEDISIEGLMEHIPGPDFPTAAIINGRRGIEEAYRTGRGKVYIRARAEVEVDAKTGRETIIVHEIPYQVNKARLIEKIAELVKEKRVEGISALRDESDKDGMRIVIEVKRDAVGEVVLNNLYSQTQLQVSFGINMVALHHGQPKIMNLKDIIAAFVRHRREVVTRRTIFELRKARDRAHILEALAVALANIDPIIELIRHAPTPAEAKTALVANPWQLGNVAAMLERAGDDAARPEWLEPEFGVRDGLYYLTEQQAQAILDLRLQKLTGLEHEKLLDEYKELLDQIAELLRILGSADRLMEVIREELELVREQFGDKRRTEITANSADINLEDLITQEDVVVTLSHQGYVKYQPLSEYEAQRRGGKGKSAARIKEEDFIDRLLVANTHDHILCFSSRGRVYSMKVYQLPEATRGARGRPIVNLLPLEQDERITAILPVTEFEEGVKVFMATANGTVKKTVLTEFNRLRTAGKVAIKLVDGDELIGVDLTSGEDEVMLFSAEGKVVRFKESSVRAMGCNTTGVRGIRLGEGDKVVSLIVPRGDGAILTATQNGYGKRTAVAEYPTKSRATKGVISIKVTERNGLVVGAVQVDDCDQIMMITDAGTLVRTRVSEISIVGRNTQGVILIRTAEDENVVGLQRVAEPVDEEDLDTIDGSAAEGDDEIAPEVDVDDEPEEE

Take `CCCCNC(=O)c1nc(-c2ccc(NC(=O)NCC)nc2)sc1C(=O)O` [Example 26, 4-[(Butylamino)carbonyl]-2-(6-{[(ethylamino)carbonyl]amino}pyridin-3-yl)-1,3-thiazole-5-carboxylic acid]: the inhibition at 12.5 µM in test [1] worked out at 70.5%. Also, in test [2], the “MIC (lowest concentration reducing growth by 80% or more)” value was determined as 2.0 µg/mL (≈ 5.11 µM).
Turning to `CCNC(=O)Nc1ccc(-c2ccc3nc(C)c(C(=O)OCC)n3c2)cn1` [Example 139, ethyl 6-(6-{[(ethylamino)carbonyl]amino}pyridin-3-yl)-2-methylimidazo[1,2-a]pyridine-3-carboxylate], the inhibition at 12.5 µM in test [1] came to 96.7%.
On the same count and under the same terms, the same measure for `CCNC(=O)Nc1ccc(-c2nc(C(=O)N(C)C)c(C(=O)OCC)s2)cn1` [Example 140, ethyl 4-[(dimethylamino)carbonyl]-2-(6-{[(ethylamino)carbonyl]amino}pyridin-3-yl)-1,3-thiazole-5-carboxylate]: 76.6%.
For `CCNC(=O)Nc1cc(-c2nc(C(C)(C)C)cs2)c(-c2cncc(C(=O)OCC)c2)cn1` [Example 141, ethyl 4′-(4-tert-butyl-1,3-thiazol-2-yl)-6′-{[(ethylamino)carbonyl]amino}-3,3′-bipyridine-5-carboxylate], in test [1], the inhibition at 12.5 µM amounted to 99.2%.
For `CCNC(=O)Nc1nc(-c2cccc(C(=O)O)c2)cs1` [Example 142, 3-(2-{[(ethylamino)carbonyl]amino}-1,3-thiazol-4-yl)benzoic acid], the inhibition at 12.5 µM in test [1] was found to be 0.68%.
As for `CCNC(=O)Nc1cc(-c2cccc(C(=O)O)c2)ccn1` [Example 143, 3-(2-{[(ethylamino)carbonyl]amino}pyridin-4-yl)benzoic acid], the inhibition at 12.5 µM in test [1] was 99.1%.
Take `CCNC(=O)Nc1cc(-c2ccc(C(=O)O)cc2)ccn1` [Example 144, 4-(2-{[(ethylamino)carbonyl]amino}pyridin-4-yl)benzoic acid]: the inhibition at 12.5 µM in test [1] is 38.6%.
The same measure, in the same setting: the same measure for `CCNC(=O)Nc1cc(-c2nc(C(C)(C)C)cs2)c(-c2cncc(C(=O)O)c2)cn1` [Example 145, 4′-(4-tert-butyl-1,3-thiazol-2-yl)-6′-{[(ethylamino)carbonyl]amino}-3,3′-bipyridine-5-carboxylic acid]: 101%; for `CCNC(=O)Nc1ccc(-c2cccc(CC(=O)O)c2)cn1` [Example 146, [3-(6-{[(ethylamino)carbonyl]amino}pyridin-3-yl)phenyl]acetic acid]: 64.3%.
As for `CCNC(=O)Nc1ccc(-c2nc(-c3ncnn3C)c(C(=O)O)s2)cn1` [Example 147, 2-(6-{[(ethylamino)carbonyl]amino}pyridin-3-yl)-4-(1-methyl-1H-1,2,4-triazol-5-yl)-1,3-thiazole-5-carboxylic acid], the “S. aureus (SAU) GyrB ATPase % Inhibition” value in test [1] (compound concentration 12.5 μM, 12.5 µM) came to 94.65%.
In the case of `CCNC(=O)Nc1ccc(-c2ccc3nc(C)c(C(=O)O)n3c2)cn1` [Example 148, 6-(6-{[(ethylamino)carbonyl]amino}pyridin-3-yl)-2-methylimidazo[1,2-a]pyridine-3-carboxylic acid], in test [1], the inhibition at 12.5 µM amounted to 94.2%.
Turning to `CCNC(=O)Nc1ccc(-c2nc(C(=O)N(C)C)c(C(=O)O)s2)cn1` [Example 149, 4-[(dimethylamino)carbonyl]-2-(6-{[(ethylamino)carbonyl]amino}pyridin-3-yl)-1,3-thiazole-5-carboxylic acid], the inhibition at 12.5 µM in test [1] amounted to 97.5%.
Regarding `CCCCNC(=O)c1nc(-c2cnc(NC(=O)NCC)cc2-c2nc(CC)cs2)sc1C(=O)O` [Example 150, 4-[(butylamino)carbonyl]-2-[6-{[(ethylamino)carbonyl]amino}-4-(4-ethyl-1,3-thiazol-2-yl)pyridin-3-yl]-1,3-thiazole-5-carboxylic acid], the inhibition at 12.5 µM in test [1] stood at 100%.
Consider `CCNC(=O)Nc1cccc(-c2cccc(C(N)=O)c2)n1` [Example 151, 3-(6-{[(ethylamino)carbonyl]amino}pyridin-2-yl)benzamide], for which the inhibition at 12.5 µM in test [1] is 97.7%.
Same read-out and setting: the figure for `CCNC(=O)Nc1ccc(-c2nc(C(N)=O)c(C(N)=O)s2)cn1` [Example 152, 2-(6-{[(ethylamino)carbonyl]amino}pyridin-3-yl)-1,3-thiazole-4,5-dicarboxamide] is 69.4%; for `CCNC(=O)Nc1ccc(-c2nc(C(C)=O)c(C(=O)N(C)C)s2)cn1` [Example 153, 4-acetyl-2-(6-{[(ethylamino)carbonyl]amino}pyridin-3-yl)-N,N-dimethyl-1,3-thiazole-5-carboxamide] it is 71.4%; for `CCNC(=O)Nc1ccc(-c2nc(C(C)=O)c(C(N)=O)s2)cn1` [Example 154, 4-acetyl-2-(6-{[(ethylamino)carbonyl]amino}pyridin-3-yl)-1,3-thiazole-5-carboxamide] it is 99.8%.
For the compound `CCNC(=O)Nc1ccc(-c2ccc3nc(C)c(C(N)=O)n3c2)cn1` [Example 155, 6-(6-{[(ethylamino)carbonyl]amino}pyridin-3-yl)-2-methylimidazo[1,2-a]pyridine-3-carboxamide], in test [1], the inhibition at 12.5 µM was 82.3%.
Same read-out and setting: the same measure for `CCNC(=O)Nc1cccc(-c2cccc(C(=O)N(C)C)c2)n1` [Example 156, 3-(6-{[(ethylamino)carbonyl]amino}pyridin-2-yl)-N,N-dimethylbenzamide]: 43%.
Still for that read-out and setting: the same measure for `CCNC(=O)Nc1ccc(-c2nc(-c3ncnn3C)c(C(N)=O)s2)cn1` [Example 157, 2-(6-{[(ethylamino)carbonyl]amino}pyridin-3-yl)-4-(1-methyl-1H-1,2,4-triazol-5-yl)-1,3-thiazole-5-carboxamide]: 101%; for `CCCCNC(=O)c1sc(-c2ccc(NC(=O)NCC)nc2)nc1C(=O)N(C)C` [Example 158, N^5-butyl-2-(6-{[(ethylamino)carbonyl]amino}pyridin-3-yl)-N^4,N^4-dimethyl-1,3-thiazole-4,5-dicarboxamide]: 92.6%.
In the case of `CCNC(=O)Nc1ccc(-c2nc(C(=O)N(C)C)c(C(=O)NC(C)(C)C)s2)cn1` [Example 159, N^5-(tert-butyl)-2-(6-{[(ethylamino)carbonyl]amino}pyridin-3-yl)-N^4,N^4-dimethyl-1,3-thiazole-4,5-dicarboxamide], in test [1], the inhibition at 12.5 µM was 95.3%.
Same read-out and setting: the figure for `CCNC(=O)Nc1cc(-c2nc(CC)cs2)c(-c2cccc(C(=O)N(C)C)c2)cn1` [Example 160, 3-[6-{[(ethylamino)carbonyl]amino}-4-(4-ethyl-1,3-thiazol-2-yl)pyridin-3-yl]-N,N-dimethylbenzamide] is 95.5%; for `CCNC(=O)Nc1cc(-c2nc(CC)cs2)c(-c2cncc(C(=O)N(C)C)c2)cn1` [Example 161, 6′-{[(ethylamino)carbonyl]amino}-4′-(4-ethyl-1,3-thiazol-2-yl)-N,N-dimethyl-3,3′-bipyridine-5-carboxamide] it is 101%.
On the same count and under the same terms, the figure for `CCCCNC(=O)c1nc(-c2cnc(NC(=O)NCC)cc2-c2nc(CC)cs2)sc1C(=O)N(C)C` [Example 162, N^4-butyl-2-[6-{[(ethylamino)carbonyl]amino}-4-(4-ethyl-1,3-thiazol-2-yl)pyridin-3-yl]-N~5~,N~5~-dimethyl-1,3-thiazole-4,5-dicarboxamide] is 101%.
Still for that read-out and setting: the figure for `CCCCNC(=O)c1csc(-c2cnc(NC(=O)NCC)cc2-c2ccccc2)n1` [Example 163, N-butyl-2-(6-{[(ethylamino)carbonyl]amino}-4-phenylpyridin-3-yl)-1,3-thiazole-4-carboxamide] is 97.8%; for `CCNC(=O)Nc1cc(-c2nc(C(C)(C)C)cs2)c(-c2cncc(C(=O)NC)c2)cn1` [Example 164, 4′-(4-tert-butyl-1,3-thiazol-2-yl)-6′-{[(ethylamino)carbonyl]amino}-N-methyl-3,3′-bipyridine-5-carboxamide] it is 88.1%.
